Results: patent US20110092439A1, “METHOD OF PROMOTING WOUND HEALING” (priority 2008, published 2011)
“Also recorded” adds a separate entry of the source.

Legend:
[1] = test system: wounded sites; details: systemic relaxin, rats; cited from earlier work
[2] = test system: tooth movement; details: RLX via gingival injections, dog models; cited from earlier work
[3] = test system: 20×6 mm incisional wounds on the back; assay: Porcine skin wound study; assay type: in vivo, juvenile pigs
From the text: Overview of the Animal Study. In selecting the appropriate animal for this study, a pig was selected because of the anatomical similarities between pig skin and human skin. In fact, pig wound healing has been used in numerous studies to simulate human skin (Sullivan et al., Wound Repair Regen. 9: 66-76, 2001).
Design of Study. In this study, juvenile pigs were oriented with twelve wound sites per animal—20×6 mm incisional wounds on the back—over the course of a six week study (see FIG. 2). Systemic relaxin was delivered via mini-pumps to achieve 20 ng/mL serum concentrations. Topical formulations were prepared by Dow Pharma, and consisted of propylene glycol and ethanol, which contributed to good long term stability of the therapeutic agent. Dosages consisting of placebo, 0.5 mg/mL (low dose), and 2.5 mg/mL (high dose) were prepared. The goals of the study were to assess the safety of topical relaxin on wound healing and to determine the efficacy of relaxin as a treatment for wound healing and/or scar formation. During the first week, irrigation was performed once daily. During weeks 2-3, topical formulation was applied twice daily, and during weeks […], topical formulation was applied once daily.
Design of Drug. The study drug was relaxin (produced by recombinant technology). Recombinant relaxin is identical to the native human hormone H2 relaxin, produced using a recombinant single chain process. The active test article may be aseptically diluted to the desired concentration with the acetate diluent (20 mM sodium acetate, pH 5.0).
Study Procedures. Referring to FIG. 3 which depicts the back of a pig with incisions according to the experimental design described herein at the completion of six weeks, the wound in Section 3 was irrigated with relaxin construct during the first week, and subsequently treated with high dose topical relaxin formulation during weeks 2-6 as described above. Sections 4, 5, and 6 received no irrigation during week 1. Section 4 was treated with placebo. Section 5 was treated with low dose topical formulation, and Section 6 was treated with high dose topical formulation.
Cosmetic appearance of skin. Visual rankings of wound pictures were conducted by neutral observers who evaluated scabs during early wound healing (days 5-7) and scars at the end of the study (see FIG. 4). […] The results of this visual wound assessment determined that 89% of the time a relaxin treatment group was selected in the top three. Only 11% of the time, a group not treated with relaxin was selected in the top three.
A cosmetic score was also determined by a professional dermatologist at weeks 2, 4, and 6. The cosmetic score has five components: (1) color—matching with surrounding skin; (2) texture—no hardness; (3) distortion—no distortion of nearby skin; (4) contour—flush with surrounding skin; (5) global—no hypertrophy or keloid formation. During this dermatological assessment, evaluation at time 2 weeks was obscured by scabs, so the data for cosmetic scores was collected from evaluation at weeks 4 and 6 (see FIG. 5). […] In the bottom profile, the scar is visible.
Histological evaluation. A professional histopathologist evaluated the pathology of the treatments for such indications as granulation, inflammation, and necrosis. In judging granulation tissue, it is considered that early response to wound includes invasion of the site by fibroblasts, inflammatory cells, and new blood vessels. Over time, this resolves to more normal tissue as the site heals. Chronic inflammation characterized by the presence of macrophages, giant cells, lymphocytes, and PMNs indicated adverse reaction. Minor factors such as keratosis (formation of keratin layer outside the epidermis) and acanthosis (thickening of the epidermal layer) are also considered. […]

[4] = Canine gingiva study: RLX migration and degradation after gingival injection (SELDI-TOF MS); assay type: in vivo, dog; details: for migration of RLX through the gingiva: after gingival injection; for concentration of H2 RLX detected in treated gingiva: site of injection
Protocol: The aim of this study was to determine the rate of RLX migration and extent of degradation after gingival injections. […] Employing a dog model, RLX was administered and tissue punch biopsies were collected at the site of injection and 0.5, 1 and 2 cm from the site of injection. Tissue was collected at several time points including 1, 2 and 4 hrs after injection. Protein was extracted from the gingival biopsies and analysed via ProteinChip technology (Surface Enhanced Laser Desorption/Ionization Time-of-Flight Mass Spectrometry, SELDI-TOF MS), which combines two well-established methods of solid phase chromatography and TOF-MS into an integrated platform. ProteinChip arrays were coated with anti-H2 RLX Ab, allowing the specific capture of RLX and associated breakdown/modified products.
Design of Drug. Gingival injections were administered (25 μg H2 RLX/100 μl, 41 μM) and tissue was collected at several positions including the site of injection and 0.5, 1 and 2 cm from the site of injection. Tissue was collected 1, 2 and 3 hrs after injection.
a) Protein Extraction and Quantitation. Frozen gingival biopsies were homogenized in extraction buffer (10 μl/mg tissue) containing 10 mM Tris-HCl, 10 mM NaCl, 0.1% TFA and protease inhibitor (complete mini, Roche). The extract was centrifuged (6000×g) for 10 min and the supernatant was collected, aliquoted and stored at −80° C. Total protein concentration was determined using the Bradford assay. Protein concentrations ranged from 1.4 mg/ml to 2.8 mg/ml, all samples were standardized to 1.4 mg/ml in extraction buffer.
b) SELDI-TOF MS analysis—Analysis of RLX treated gingiva on PG20 arrays. Anti-H2 RLX Ab (2 μl/0.25 mg/ml; Genentech) or control IgG (Ciphergen Biosystems) was applied to each spot of a PS20 array which had been pre-coated with Protein G (Ciphergen Biosystems). After antibody binding, the chip was washed once with PBS/0.5% Triton X-100 for 5 min with agitation (5 μl per spot), followed by two PBS washes. Dog gingiva extracts (3 μl/1.4 mg/ml) were applied to each spot and incubated for 4 hrs. Non-specifically bound proteins were removed by sequentially washing with PBS/0.5% Triton X-100, PBS and 1 mM HEPES, pH 7.2. The chips were air dried and 1 μl of 50% saturated sinapinic acid in 50% (v/v) acetonitrile, 0.5% trifluoroacetic acid was applied onto each spot twice, arrays were air dried between each application. Chips were subsequently analysed by SELDI-TOF MS (Ciphergen Biosystems) using the following settings, laser 220 and sensitivity 9.
c) Generation of H2 RLX Std Curve on PG20 arrays. H2 RLX (batch number 11835-89) was spiked into control dog gingiva (1.4 mg/ml) at different concentrations, including 100 nM, 50 nM, 12.5 nM, 6.25 nM, 3.125 nM and 1.56 nM and analysed as described above.

[5] = as above; assay type: in vivo, dog
[6] = systemic relaxin vs no systemic relaxin
[7] = systemic relaxin, after six weeks, blinded histopathology

relaxin
VEGF and bFGF transcripts [1]: upregulation | new blood vessel formation selectively at wounded sites [1]: increased | relapse [2]: prevent relapse | tooth movement [2]: speed tooth movement | blood vessels in the wound site ([3]; after about six weeks of treatment): overall reduction | relaxin treatment group selected in the top three in visual wound assessment ([3]; blinded neutral observers ranking best three of six groups of wound pictures): 89 % of the time | adverse effects / tolerability over dose range ([3]; dose range 10-960 μg/kg/day): no relevant adverse effects; also recorded: well-tolerated | wound healing / cosmetic ranking with irrigation relaxin treatment versus topical only ([3]; irrigation week 1 then high dose topical weeks 2-6): particularly efficacious; also recorded: ranked higher overall | wound healing with topical-only relaxin compared to placebo ([3]; low dose 0.5 mg/mL and high dose 2.5 mg/mL topical formulation, six weeks): improved wound healing | adverse effects associated with relaxin treatment ([3]; pig, in vivo): no adverse effects | necrosis or inflammation associated with relaxin treatment ([3]; pig, in vivo): no necrosis or inflammation | scarring on histopathological slide ([3]; relaxin treatment, six weeks, no relaxin: severe scarring): mild scarring | wound healing after systemic treatment compared to topical administration ([3]; some indications): better wound healing | collagen organization (objective collagen scoring, red pixel ratio) [3, 6]: significantly better | composite wound healing score (three point collagen scale) [3, 6]: significantly improved | wound appearance versus control pig ([3]; systemic relaxin, after day six): healed faster, better | chronic inflammation in wound sites [3, 7]: reduces; also recorded: significantly reduced | granulation tissue in wound sites [3, 7]: reduces; also recorded: significantly reduced | scar visibility at wound site ([3]; systemic relaxin, six weeks of treatment, vs placebo (red scar visible)): invisible; also recorded: no scar was visible | RLX detection 0.5 cm from the site of injection ([4]; 1 hr time point): detected | RLX detection 1 cm from the site of injection ([4]; 1 hr time point): not detected | RLX detection 2 cm from the site of injection ([4]; 1 hr time point): not detected | migration of RLX through the gingiva [4]: stayed close to the injection site | migration of RLX through the gingiva ([4]; listed as RLX): stayed close to the injection site; also recorded: limited migration | concentration of H2 RLX detected in treated gingiva ([4]; 1 hr after gingival injection of 25 μg H2 RLX/100 μl): 90 nM | concentration of H2 RLX detected in treated gingiva ([4]; 2 hrs after gingival injection of 25 μg H2 RLX/100 μl): 78 nM | RLX detection at the remaining time points ([5]; 2 and 4 hrs): only detected at the site of injection | concentration of H2 RLX detected in treated gingiva ([5]; site of injection, 4 hrs after gingival injection of 25 μg H2 RLX/100 μl): 21 nM
